In PMC5341752, “New bipyridine gold(III) dithiocarbamate-containing complexes exerted a potent anticancer activity against cisplatin-resistant cancer cells independent of p53 status” (Oncotarget, 2016):

Legend:
[1] = test system: NSCLC cell lines (H460, A549, H226, H838, H157, H1975, H2122, SKLU1, H1299); test: Cytotoxicity in a panel of NSCLC cell lines, MTT assay; format: cell-based; details: all NSCLC cell lines
Procedure: (§1) PC3 and MCF-7 cells (2.5 × 10^3), A2780, A2780cis (4.0 × 10^3), A2780CP-16 and lung cancer cells (H460, A549, H226, H838, H157, H1975, H2122, SKLU1 and H1299) were seeded in 96-well flat-bottomed microplates (100 μL) and incubated for 24 h (to allow cell adhesion) before drug testing. The medium was then removed and replaced with fresh medium containing the gold(III) complexes (compound 1–9) to be tested at increasing concentrations (from 0.01 to 100 μM) at 37°C for 72 h. Each treatment was performed in triplicate. Cell proliferation was assayed using the MTT assay. Alternatively, L-540 cells (2.0 × 10^5/mL) were seeded in 96-well plates and treated as previously described. After treatment, cell proliferation was evaluated by the MTS assay (Promega). IC50 (i.e., the half maximal inhibitory concentration representing the concentration of a substance required for 50% in vitro inhibition) IC75 and IC90 values (Supplementary Table S1) were calculated using the CalcuSyn software (Biosoft, Ferguson, MO, USA). Dependence of activity on p53 was assessed in A2780 cells following p53 knockdown by CRISPR [48].

[2] = test system: A2780 CRISPR p53 KO cells; test: MTT assay in A2780 clone with p53 knocked out by CRISPR/Cas9; format: cell-based, human; details: mean ± SEM
Procedure: as §1

[3] = test system: A2780 CRISPR Control cells (WT-p53); test: MTT assay in A2780 clone transfected with CRISPR control plasmid; format: cell-based, human; details: mean ± SEM
Procedure: as §1

A2780cis cells = test: Growth inhibition, MTT assay, cisplatin-resistant A2780cis cells; format: cell-based, human; details: for IC50: mean ± SEM; for Fold resistance A2780cis/A2780 ratio: ratio A2780cis IC50/A2780 IC50
Procedure: as §1

PC3 cells = test: Growth inhibition, MTT assay, PC3 cells; format: cell-based, human; details: 72 h exposure; for IC50: mean ± SEM
Procedure: as §1

MCF-7 cells = test: Growth inhibition, MTT assay, MCF-7 cells; format: cell-based, human; details: for IC50: mean ± SEM
Procedure: as §1

A2780 cells = test: Growth inhibition, MTT assay, A2780 cells; format: cell-based, human; details: 72 h exposure; for IC50: mean ± SEM
Procedure: as §1

L-540 cells = test: Growth inhibition, MTS assay, L-540 cells; format: cell-based, human; details: 72 h exposure; for IC50: mean ± SEM
Procedure: as §1

[4] = Stability by UV-Vis spectra in DMSO over 24 hours at 37°C; format: physicochemical; details: DMSO solution
Procedure: Electronic spectra were recorded on each complex freshly prepared in DMSO solution at room temperature. Then, their electronic spectra were monitored over 24 hours at 37°C. The resulting UV-Vis absorption spectra of compound 1, 2 and 3 are shown in Supplementary Figure S4A–S4C.

2780CP cells = test system: 2780CP cells; set-up: method as in PMID 10643661; details: 2780CP-16 versus A2780; cited from earlier work
[5] = test system: A2780, A2780cis, MCF-7, PC3, L-540 cells; test: Apoptosis, Annexin V/PI double staining, flow cytometry; format: cell-based, human; details: IC75, 72 h
Procedure: (§2) PC3 (2.5 × 10^4), MCF-7 (5.0 × 10^4), A2780 and A2780cis (5.0 × 10^4), and L-540 cells (2.0 × 10^5/mL) were incubated in six-well plates with compound 1 (IC75) (Figure 1) for 72 h. Annexin-V binding (Becton-Dickinson [BD] Pharmingen, San Jose, CA) together with propidium iodide (PI) staining was detected in tumor cells by flow cytometry, as described. Caspase 3 and 9 activation was evaluated using the fluorochrome inhibitors of caspases (FLICA) Caspa-TagTM caspase-3/7 (FAM-DEVD-FMK) and caspase 9 (FAM-LETD) (Chemicon International, Milan, Italy). Briefly, cells were treated with compound 1 (IC75), then harvested, washed and resuspended in warmed complete medium supplemented with FLICA for 1 h and then immediately analyzed by flow cytometry. DNA fragmentation was assessed using the Apo-Direct kit (Becton-Dickinson Pharmigen, CA, USA) according to manufacturer's instructions. […] Red fluorescence was immediately analyzed by flow cytometry. Viable cells were identified according to their forward and right-angle scattering, electronically gated and analyzed on a FACScan flow cytometer (BD), using CellQuest software (BD). […] After 72 h, ROS formation and viable cells number were evaluated by flow cytometry and trypan blue dye exclusion assay, respectively. […]

[6] = test system: A2780, A2780cis, MCF-7, PC3, L-540 cells; test: Caspase 3 activation, FLICA reagent, flow cytometry; format: cell-based, human; details: IC75, 0, 24 and 48 h
Procedure: as §2

tumor cells [7] = test: Cell cycle progression; format: cell-based; details: data not shown
tumor cells [8] = test: Cytochrome-c release, flow cytometry; format: cell-based, human; details: IC75, 24 h
[9] = test system: human Mesenchymal stromal cells (MSCs); test: Proliferation of normal Mesenchymal stromal cells, MTT assay; format: cell-based; details: 72 h
Procedure: Bone Marrow (BM) derived human Mesenchymal Stromal Cells (MSCs) were from Lonza (Lonza, Verviers, Belgium). MSCs were maintained in MSGM bullet kit (Lonza) and experiments were performed in DMEM medium (Cambrex Bio Science, Milano, Italy) supplemented with 10% FCS. To evaluate effects of compound 1, MSCs (5.0 × 10^3) were seeded in 96-well flat-bottomed microplates (100 μL) and incubated for 24 h (to allow cell adhesion) before drug testing. The medium was then removed and replaced with fresh medium containing compound 1 to be tested at increasing concentrations (from 0.1 to 1 μM) at 37°C for 72 h. Each treatment was performed in triplicate. Cell proliferation was assayed using the MTT assay.

tumor cells [10] = test: Mitochondrial ROS, MitoSox, flow cytometry; format: cell-based, human; details: IC75, 72 h
Procedure: as §2

tumor cells [11] = test: Mitochondrial membrane permeabilization, CMXRos, flow cytometry; format: cell-based, human; details: IC75, 24 h
Procedure: as §2

[12] = test system: A2780, A2780cis, MCF-7, PC3, L-540 cells; test: DNA fragmentation, Apo-Direct, flow cytometry; format: cell-based, human; details: IC75, 72 h
Procedure: as §2

tumor cells [13] = test: Caspase 9 activation, FLICA reagent, flow cytometry; format: cell-based, human; details: IC75, 24 h
Procedure: as §2

Compound: Cc1ccc2[n+](c1)[Au-]1([S]C(N(C)C)=[S+]1)[n+]1cc(C)ccc1-2.[Cl-].[Cl-] [Compound 4, [Au(5,5′-Me2BPY)(DMTC)]Cl2]
- fold greater potency than compounds 3, 6 and 9 [1]: at least 10 fold
- IC50 [2]: 83 ± 3 nM
- IC50 [3]: 87 ± 3 nM
- IC50 (A2780cis cells; 72 h exposure, MTT): 170 ± 10 nM
- IC50 (PC3 cells): 590 ± 50 nM
- IC50 (MCF-7 cells; 72 h exposure, MTT): 280 ± 20 nM
- IC50 (A2780 cells): 280 ± 30 nM
- IC50 (L-540 cells): 2700 ± 220 nM

Compound: CCN(CC)C1=[S+][Au-]2([S]1)[n+]1c(C)cccc1-c1cccc(C)[n+]12.Cl.Cl [Compound 8, [Au(6,6′-Me2BPY)(DETC)]Cl2]
- IC50 (A2780cis cells; 72 h exposure, MTT): 450 ± 30 nM
- IC50 (PC3 cells): 1600 ± 140 nM
- IC50 (MCF-7 cells; 72 h exposure, MTT): 470 ± 40 nM
- IC50 (A2780 cells): 730 ± 60 nM
- IC50 (L-540 cells): 6200 ± 560 nM

Compound: Cc1cccc2[n+]1[Au-]1([S]C(N(Cc3ccccc3)Cc3ccccc3)=[S+]1)[n+]1c(C)cccc1-2.[Cl-].[Cl-] [Compound 9, [Au(6,6′-Me2BPY)(DBTC)]Cl2]
- IC50 (A2780cis cells; 72 h exposure, MTT): 16000 ± 1440 nM
- Fold resistance A2780cis/A2780 ratio (A2780cis cells): 2.39
- IC50 (PC3 cells): 11500 ± 1030 nM
- IC50 (MCF-7 cells; 72 h exposure, MTT): 31000 ± 2790 nM
- IC50 (A2780 cells): 6700 ± 600 nM
- IC50 (L-540 cells): 35800 ± 3220 nM

Compound: CCN(CC)C(=S)[S-].[Au+3].[Cl-].[Cl-].c1ccc(-c2ccccn2)nc1 [Compound 2, [Au(BPY)(DETC)]Cl2]
- stability by UV spectra [4]: confirm the stability under physiological temperature
- IC50 (A2780cis cells; 72 h exposure, MTT): 180 ± 10 nM
- IC50 (PC3 cells): 700 ± 60 nM
- IC50 (MCF-7 cells; 72 h exposure, MTT): 270 ± 20 nM
- IC50 (A2780 cells): 240 ± 20 nM
- IC50 (L-540 cells): 2800 ± 250 nM

Compound: Cc1cccc2[n+]1[Au-]1([S]C(N(C)C)=[S+]1)[n+]1c(C)cccc1-2.[Cl-].[Cl-] [Compound 7, [Au(6,6′-Me2BPY)(DMTC)]Cl2]
- fold greater potency than compounds 3, 6 and 9 [1]: at least 10 fold
- IC50 (A2780cis cells; 72 h exposure, MTT): 230 ± 20 nM
- IC50 (PC3 cells): 770 ± 70 nM
- IC50 (MCF-7 cells; 72 h exposure, MTT): 350 ± 30 nM
- IC50 (A2780 cells): 270 ± 20 nM
- IC50 (L-540 cells): 3600 ± 320 nM

Compound: S=C([S-])N(Cc1ccccc1)Cc1ccccc1.[Au+3].[Cl-].[Cl-].c1ccc(-c2ccccn2)nc1 [Compound 3, [Au(BPY)(DBTC)]Cl2]
- IC50 [2]: 1130 ± 390 nM
- stability by UV spectra [4]: confirm the stability under physiological temperature
- IC50 [3]: 870 ± 110 nM
- IC50 (A2780cis cells; 72 h exposure, MTT): 14300 ± 1120 nM
- Fold resistance A2780cis/A2780 ratio (A2780cis cells): 3.07
- IC50 (PC3 cells): 11200 ± 1000 nM
- IC50 (MCF-7 cells; 72 h exposure, MTT): 23000 ± 2070 nM
- IC50 (A2780 cells): 4660 ± 130 nM
- IC50 (L-540 cells): 12000 ± 1080 nM

Compound: Cc1ccc2[n+](c1)[Au-]1([S]C(N(Cc3ccccc3)Cc3ccccc3)=[S+]1)[n+]1cc(C)ccc1-2.[Cl-].[Cl-] [Compound 6, [Au(5,5′-Me2BPY)(DBTC)]Cl2]
- IC50 (A2780cis cells; 72 h exposure, MTT): 15700 ± 1410 nM
- Fold resistance A2780cis/A2780 ratio (A2780cis cells): 2.47
- IC50 (PC3 cells): 11600 ± 1040 nM
- IC50 (MCF-7 cells; 72 h exposure, MTT): 18000 ± 1620 nM
- IC50 (A2780 cells): 6350 ± 60 nM
- IC50 (L-540 cells): 6500 ± 60 nM

Compound: cis-[Pt(NH3)2Cl2] [Cisplatin]
- fold cisplatin resistance of 2780CP cells (2780CP cells): 20 fold
- IC50 (A2780cis cells; 72 h exposure, MTT): 10400 ± 900 nM
- Fold resistance A2780cis/A2780 ratio (A2780cis cells): 6.93
- Fold resistance A2780cis/A2780 ratio (A2780cis cells; listed as cisplatin): about 7
- IC50 (PC3 cells): 3300 ± 300 nM
- IC50 (MCF-7 cells; 72 h exposure, MTT): 22200 ± 200 nM
- IC50 (A2780 cells): 1500 ± 100 nM
- IC50 (L-540 cells): 2500 ± 100 nM

Compound: CN(C)C1=[S+][Au-]2([S]1)[n+]1ccccc1-c1cccc[n+]12.[Cl-].[Cl-] [Compound 1, [Au(BPY)(DMTC)]Cl2]
- apoptosis (Annexin-V/PI) [5]: induced apoptosis in the cell lines tested
- caspase 3 activation [6]: induced a time-dependent activation of caspase 3
- cell cycle progression (tumor cells [7]): only slightly affected
- cytochrome-c release from the mitochondria (tumor cells [8]): cytochrome-c (Cyt-c) release
- IC50 [9]: 960 nM
- stability by UV spectra [4]: confirm the stability under physiological temperature
- mitochondrial ROS levels (tumor cells [10]): increased mitochondrial ROS levels
- mitochondrial membrane permeabilization (tumor cells [11]): promoted mitochondrial membrane permeabilization
- DNA fragmentation (Apo-Direct) [12]: Apoptosis induction was confirmed by DNA fragmentation
- IC75 A2780cis (A2780cis cells; 72 h exposure, MTT): 430 ± 40 nM
- IC90 (A2780cis cells; 72 h exposure, MTT): 560 ± 60 nM
- IC50 (A2780cis cells; 72 h exposure, MTT): 170 ± 10 nM
- fold more active than cisplatin in inhibiting cell proliferation (A2780cis cells; A2780cis cells): about 60 fold
- caspase 9 activation (tumor cells [13]): induced activation of caspase 9
- IC75 PC3 (PC3 cells): 730 ± 70 nM
- IC90 (PC3 cells): 910 ± 110 nM
- IC50 (PC3 cells): 420 ± 40 nM
- IC75 MCF-7 (MCF-7 cells; 72 h exposure, MTT): 510 ± 50 nM
- IC90 (MCF-7 cells; 72 h exposure, MTT): 740 ± 80 nM
- IC50 (MCF-7 cells; 72 h exposure, MTT): 270 ± 20 nM
- fold more active than cisplatin in inhibiting cell proliferation (MCF-7 cells; MCF-7 cells): ~80 fold
- IC75 A2780 (A2780 cells): 450 ± 40 nM
- IC90 (A2780 cells): 600 ± 50 nM
- IC50 (A2780 cells): 180 ± 20 nM
- IC75 L-540 (L-540 cells): 3500 ± 320 nM
- IC90 (L-540 cells): 4200 ± 390 nM
- IC50 (L-540 cells): 2680 ± 240 nM

Compound: CCN(CC)C1=[S+][Au-]2([S]1)[n+]1cc(C)ccc1-c1ccc(C)c[n+]12.Cl.Cl [Compound 5, [Au(5,5′-Me2BPY)(DETC)]Cl2]
- IC50 (A2780cis cells; 72 h exposure, MTT): 230 ± 20 nM
- IC50 (PC3 cells): 860 ± 80 nM
- IC50 (MCF-7 cells; 72 h exposure, MTT): 290 ± 30 nM
- IC50 (A2780 cells): 590 ± 50 nM
- IC50 (L-540 cells): 2900 ± 260 nM
